For assay [1], the system named is AMPA receptor. Put plainly: Suppressing action to calcium influx into nerve cells induced by AMPA. The class given is cell-based. Particulars: Fura2-AM, stimulation with 2 μM AMPA, primary culture of rat embryo cerebral cortex nerve cells, 1 μM MK-801. Put shortly:
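Rat E18 cortical neurons grown on astrocyte feeder layers for 8–10 days or more, with 1 μM MK-801 in the medium. Cells were Fura2-AM-loaded for 1 h, then stimulated with 2 μM AMPA in Tyrode containing 1 μM MK-801. Calcium influx was read as the 340/380 nm excitation fluorescence change.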

Assay [2] deals with convulsion induced by AMPA. The assay can be described thus: Anticonvulsant action induced by AMPA. The class given is in vivo, mice of ddy strain. The settings on record: 25 mg/kg orally, mice; AMPA injected into lateral ventricle 30 minutes or 1 hour after administration. Here is the method: Anticonvulsant Action Induced by AMPA A test compound was suspended in a 0.5% methyl cellulose solution or in sesame oil and was orally administered (25 mg/kg) to male mice of ddy strain. After 30 minutes or 1 hour from the oral administration, AMPA was continuously injected ([…]/5 μl/minute/mouse) into lateral ventricle to induce the convulsions. The effect was judged by a time-extending action until the convulsion takes place by a continuous injection of AMPA.

What is called IC50 is the midpoint of a concentration-inhibition curve.

As for `O=C1C(c2ccccc2O)CC(c2ccccn2)=NN1c1ccccc1Br` (stereo not drawn) [Example 29, 2-(2-Bromophenyl)-4-(2-hydroxyphenyl)-6-(2-pyridyl)-4,5-dihydro-3 (2H)-pyridazinone], the IC50 in assay [1] came out at 100 nM. Besides, the “anticonvulsant action (time-extending action until the convulsion takes place)” value (“anticonvulsant action” for short) in assay [2] is on record as “significantly inhibited the convulsion induced by AMPA”.
In the same order, the values of `N#Cc1ccccc1N1N=C(c2ccccn2)CN(c2cccnc2)C1=O` [Example 103, 2-(2-Cyanophenyl)-6-(2-pyridyl)-4-(3-pyridyl)-4,5-dihydro-1,2,4-triazin-3 (2H)-one] are 100 nM and “significantly inhibited the convulsion induced by AMPA”.
In the same order, the values of `N#Cc1ccccc1-n1nc(-c2ccccn2)cc(-c2cccnc2)c1=O` [Example 45, 2-(2-Cyanophenyl)-4-(3-pyridyl)-6-(2-pyridyl)-3 (2H)-pyridazinone] are 200 nM and “significantly inhibited the convulsion induced by AMPA”.
In the same order, the values of `N#Cc1ccccc1N1N=C(c2ccccn2)CN(c2ccccc2)C1=O` [Example 100, 2-(2-Cyanophenyl)-4-phenyl-6-(2-pyridyl)-4,5-dihydro-1,2,4-triazin-3 (2H)-one] are 50 nM and “significantly inhibited the convulsion induced by AMPA”.
Turning to `COc1ccccc1C1=NN(c2ccccc2C#N)C(=O)N(c2ccccc2)C1` [Example 97, 2-(2-Cyanophenyl)-6-(2-methoxyphenyl)-4-phenyl-4,5-dihydro-1,2,4-triazin-3 (2H)-one], the half-inhibitory concentration (IC50) in assay [1] was 700 nM. Besides, the “anticonvulsant action” value in assay [2] was “significantly inhibited the convulsion induced by AMPA”.
`O=C1N(c2ccccc2)CC(c2ccccn2)=NN1c1ccccc1Br` [Example 88, 2-(2-Bromophenyl)-4-phenyl-6-(2-pyridyl)-4,5-dihydro-1,2,4-triazin-3 (2H)-one]: the IC50 in assay [1] is 100 nM. For the same molecule, the “anticonvulsant action” value in assay [2] is listed as “significantly inhibited the convulsion induced by AMPA”.
As for `N#Cc1ccccc1-n1nc2c(c(-c3cccnc3)c1=O)COc1ccccc1-2` [Example 9, 2-(2-Cyanophenyl)-4-(3-pyridyl)-2,3-dihydro-5H-(1)benzopyrano[4,3-c]pyridazin-3-one], the IC50 in assay [1] is 20 nM. For the same molecule, the “anticonvulsant action” value in assay [2] was “significantly inhibited the convulsion induced by AMPA”.
Consider `N#Cc1ccc(-n2nc(-c3ccccn3)cc(-c3ccccc3)c2=O)cn1` [Example 80A, 2-(2-Cyanopyridin-5-yl)-4-phenyl-6-(2-pyridyl)-3 (2H)-pyridazinone], for which the 50% inhibitory concentration (IC50) in assay [1] turned out to be 7100 nM.
For `COc1ccccc1C1=NN(c2ccccc2)C(=O)N(c2ccccc2Br)C1` [Example 115, 4-(2-Bromophenyl)-6-(2-methoxyphenyl)-2-phenyl-4,5-dihydro-1,2,4-triazin-3 (2H)-one], the IC50 in assay [1] is 7200 nM.
Consider `N#Cc1ccccc1N1N=C(c2ccccn2)CN(c2ccccc2O)C1=O` [Example 96, 2-(2-Cyanophenyl)-4-(2-hydroxyphenyl)-6-(2-pyridyl)-4,5-dihydro-1,2,4-triazin-3 (2H)-one], for which the IC50 in assay [1] stood at 600 nM.
Same read-out and setting: next, `N#Cc1ncccc1-n1nc(-c2ccccn2)cc(-c2ccccc2)c1=O` [Example 80B, 2-(2-Cyanopyridin-3-yl)-4-phenyl-6-(2-pyridyl)-3 (2H)-pyridazinone]: 200 nM; `O=c1c(-c2cccnc2)c2c(nn1-c1ccccc1I)-c1ccccc1OC2` [Example 58, 2-(2-Iodophenyl)-4-(3-pyridyl)-2,3-dihydro-5H-(1)benzopyrano[4,3-c]pyridazin-3-one]: 400 nM.
For the molecule `O=C(NCCN1CCOCC1)c1cc(-c2ccccc2)nn(-c2ccccc2Cl)c1=O` [Example 62, 2-(2-Chlorophenyl)-4-(4-morpholinoethylaminocarbonyl)-6-phenyl-3 (2H)-pyridazinone], the 50% inhibitory concentration (IC50) in assay [1] amounted to 4000 nM.
Consider `O=C1C(c2ccccc2)CC(c2ccccn2)=NN1c1ccccc1F` (stereo not drawn) [Example 28, 2-(2-Fluorophenyl)-4-phenyl-6-(2-pyridyl)-4,5-dihydro-3 (2H)-pyridazinone], for which, in assay [1], the IC50 is 100 nM.
On the same count and under the same terms, with `N#Cc1ccccc1-n1nc(-c2ncccn2)cc(-c2ccccc2)c1=O` [Example 70, 2-(2-Cyanophenyl)-4-phenyl-6-(2-pyrimidinyl)-3 (2H)-pyridazinone] the figure was 800 nM.
As for `N#Cc1ccccc1-c1cc(-c2ccccn2)nn(-c2ccccc2C#N)c1=O` [Example 46, 2-(2-Cyanophenyl)-4-(2-cyanophenyl)-6-(2-pyridyl)-3 (2H)-pyridazinone], in assay [1], the IC50 worked out at 300 nM.
Still for that read-out and setting: next, `N#Cc1ccccc1N1CC(c2ccccn2)=NN(c2ccccc2)C1=O` [Example 104, 4-(2-Cyanophenyl)-2-phenyl-6-(2-pyridyl)-4,5-dihydro-1,2,4-triazin-3 (2H)-one]: 500 nM.
Still for that read-out and setting: next, `O=c1c(-c2cccc(OCc3ccccn3)c2)cc(-c2ccccn2)nn1-c1ccccc1Br` [Example 37, 2-(2-Bromophenyl)-4-[3-(2-picolyloxyphenyl)]-6-(2-pyridyl)-3 (2H)-pyridazinone]: 100 nM.
The same measure, in the same setting: with `O=C1N(c2cc(O)ccc2O)CC(c2ccccc2O)=NN1c1ccccc1Br` [Example 94, 2-(2-Bromophenyl)-4-(2,5-dihydroxyphenyl)-6-(2-hydroxyphenyl)-4,5-dihydro-1,2,4-triazin-3 (2H)-one] the figure was 900 nM; with `COc1ccccc1C1CC(c2cccnc2)=NN(c2ccccc2Br)C1=O` (stereo not drawn) [Example 24, 2-(2-Bromophenyl)-4-(2-methoxyphenyl)-6-(3-pyridyl)-4,5-dihydro-3 (2H)-pyridazinone], 60 nM.
`COc1ccccc1C1CC(c2ccccn2)=NN(c2ccccn2)C1=O` (stereo not drawn) [Example 22, 4-(2-Methoxyphenyl)-2-(2-pyridyl)-6-(2-pyridyl)-4,5-dihydro-3 (2H)-pyridazinone]: the IC50 in assay [1] is 2700 nM.
Still for that read-out and setting: with `N#Cc1ncccc1-n1nc(-c2ncccn2)cc(-c2ccccc2)c1=O` [Example 81B, 2-(2-Cyanopyridin-3-yl)-4-phenyl-6-(2-pyrimidinyl)-3 (2H)-pyridazinone] the figure was 700 nM.
On the same count and under the same terms, with `O=c1c(-c2ccccc2OS(=O)(=O)C(F)(F)F)cc(-c2ccccn2)nn1-c1ccccc1` [Example 55, 2-Phenyl-6-(2-pyridyl)-4-(2-trifluoromethylsulfonyloxyphenyl)-3 (2H)-pyridazinone] the figure was 800 nM.
As for `O=c1c(-c2cccnc2)cc(-c2ccccn2)nn1-c1ccccc1` [Example 59, 2-Phenyl-4-(3-pyridyl)-6-(2-pyridyl)-3 (2H)-pyridazinone], the IC50 in assay [1] came out at 600 nM. The “anticonvulsant action” value in assay [2] is “significantly inhibited the convulsion induced by AMPA”.
In the same order, the values of `N#Cc1ccccc1N1N=C(c2ccccn2)CN(c2ccccn2)C1=O` [Example 102, 2-(2-Cyanophenyl)-6-(2-pyridyl)-4-(2-pyridyl)-4,5-dihydro-1,2,4-triazin-3 (2H)-one] are 100 nM and “significantly inhibited the convulsion induced by AMPA”.
With `COc1ccccc1-c1cc(-c2ccccn2)nn(-c2ccccc2C#N)c1=O` [Example 40, 2-(2-Cyanophenyl)-4-(2-methoxyphenyl)-6-(2-pyridyl)-3 (2H)-pyridazinone], in assay [1], the IC50 amounted to 100 nM.
The same measure, in the same setting: with `COc1cccc(C2CC(c3ccccn3)=NN(c3ccccc3Br)C2=O)c1` (stereo not drawn) [Example 1, 2-(2-Bromophenyl)-4-(3-methoxyphenyl)-6-(2-pyridyl)-4,5-dihydro-3 (2H)-pyridazinone] the figure was 100 nM.

For the origin of these results see US20030225081A1, “Pyridazinones and triazinones and medicinal use thereof” (priority 2000, published 2003).
